Source: patent publication US6737383B1, “Herbicidal oxadiazolidines” (priority 1999, dated 2004)

Key:
[1] = tested on: soybean; assay: Test B pre/postemergence soybean; format: in vivo, Glycine max; conditions: Preemergence
Outline: (§1)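 Test chemicals in a non-phytotoxic solvent mixture with surfactant were sprayed preemergence onto planted seeds and postemergence onto plants 2 to 18 cm tall (1- to 4-leaf stage). After twelve to sixteen days in a greenhouse, injury was visually rated against untreated controls from 0 (no effect) to 10 (complete control).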

[2] = tested on: morningglory; assay: Test B pre/postemergence morningglory; format: in vivo, Ipomoea hederacea
Outline: as §1

[3] = tested on: bedstraw; assay: Test B pre/postemergence bedstraw; format: in vivo, Galium aparine
Outline: as §1

[4] = tested on: rape; assay: Test B pre/postemergence rape; format: in vivo, Brassica napus
Outline: as §1

[5] = tested on: cocklebur; assay: Test B pre/postemergence cocklebur; format: in vivo, Xanthium strumarium
Outline: as §1

[6] = tested on: corn; assay: Test B pre/postemergence corn; format: in vivo, Zea mays
Outline: as §1

[7] = tested on: velvetleaf; assay: Test B pre/postemergence velvetleaf; format: in vivo, Abutilon theophrasti; conditions: Preemergence
Outline: as §1

[8] = tested on: crabgrass; assay: Test B pre/postemergence crabgrass; format: in vivo, Digitaria sanguinalis
Outline: as §1

[9] = tested on: surinam grass; assay: Test B pre/postemergence surinam grass; format: in vivo, Brachiaria decumbens
Outline: as §1

[10] = tested on: rice; assay: Test B flood test rice; format: in vivo, Oryza sativa
Outline: (§2)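 Read-out is a visual response score from 0 (no effect) to 10 (complete control), assigned by comparison with untreated controls. Treatment was applied at the 2-leaf stage, and plants stayed in the greenhouse for twelve to sixteen days before scoring.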

[11] = tested on: blackgrass; assay: Test B pre/postemergence blackgrass; format: in vivo, Alopecurus myosuroides
Outline: as §1

[12] = tested on: wheat; assay: Test B pre/postemergence wheat; format: in vivo, Triticum aestivum; conditions: Preemergence
Outline: as §1

[13] = tested on: pigweed; assay: Test B pre/postemergence pigweed; format: in vivo, Amaranthus retroflexus
Outline: as §1

[14] = tested on: purple nutsedge; assay: Test B pre/postemergence purple nutsedge; format: in vivo, Cyperus rotundus; conditions: Postemergence
Outline: as §1

[15] = tested on: wild oat; assay: Test B pre/postemergence wild oat; format: in vivo, Avena fatua; conditions: Preemergence
Outline: as §1

[16] = tested on: bamyardgrass; assay: Test B flood test barnyardgrass; format: in vivo, Echinochloa crus-galli
Outline: as §2

[17] = tested on: smallflower flatsedge; assay: Test B flood test smallflower flatsedge; format: in vivo, Cyperus difformis
Outline: as §2

[18] = tested on: giant foxtail; assay: Test B pre/postemergence giant foxtail; format: in vivo, Setaria faberii
Outline: as §1

[19] = tested on: sugar beet; assay: Test B pre/postemergence sugar beet; format: in vivo, Beta vulgaris; conditions: Preemergence
Outline: as §1

[20] = tested on: duck salad; assay: Test B flood test duck salad; format: in vivo, Heteranthera limosa
Outline: as §2

[21] = Rate 31 g/ha, visual rating, scale 0 to 10 (0 no effect, 10 complete control)
[22] = Rate 62 g/ha, scale of 0 to 10 where 0 is no effect and 10 is complete control
[23] = Rate 250 g/ha, scale of 0 to 10 where 0 is no effect and 10 is complete control
[24] = Rate 125 g/ha, scale of 0 to 10 where 0 is no effect and 10 is complete control
[25] = Preemergence, Rate 31 g/ha, visual rating, scale 0 to 10 (0 no effect, 10 complete control)
[26] = Preemergence, Rate 62 g/ha, scale of 0 to 10 where 0 is no effect and 10 is complete control
[27] = Preemergence, Rate 250 g/ha, scale of 0 to 10 where 0 is no effect and 10 is complete control
[28] = Rate 31 g/ha, Postemergence, scale 0 to 10
[29] = Rate 125 g/ha, Preemergence, scale of 0 to 10 where 0 is no effect and 10 is complete control
[30] = Rate 62 g/ha, Postemergence, scale of 0 to 10 where 0 is no effect and 10 is complete control
[31] = Rate 125 g/ha, Postemergence, scale 0 to 10
[32] = Rate 62 g/ha, headed Pre-emergence (flood test species), scale 0 to 10 (0 no effect, 10 complete control)
[33] = Rate 125 g/ha, Pre-emergence, flood test species, scale 0 to 10 where 0 is no effect and 10 is complete control
[34] = Rate 250 g/ha, Pre-emergence, flood-test species, scale 0 to 10, 0 is no effect, 10 is complete control
[35] = Rate 500 g/ha, Pre-emergence, flood test species, scale 0 to 10 (0 no effect, 10 complete control)

CC(C)N(C(=O)n1oc(=O)n(CCc2ccccc2)c1=O)c1ccc(F)cc1 [Compound 250]
Soybean plant response rating [1, 21]: 0
Soybean plant response rating [1, 22]: 0
Soybean plant response rating [1, 23]: 0
Soybean plant response rating [1, 24]: 0
Morningglory plant response rating [2, 25]: 0
Morningglory plant response rating [2, 26]: 0
Morningglory plant response rating [2, 27]: 0
Morningglory plant response rating [2, 28]: 4
Morningglory plant response rating [2, 29]: 0
Plant response rating (0 to 10; 0 is no effect, 10 is complete control), Morningglory ([2]; Rate 250 g/ha, Postemergence): 6
Bedstraw plant response rating [3, 25]: 0
Bedstraw plant response rating [3, 26]: 0
Bedstraw plant response rating [3, 27]: 0
Bedstraw plant response rating [3, 28]: 0
Bedstraw plant response rating [3, 30]: 0
Bedstraw plant response rating [3, 31]: 0
Bedstraw plant response rating [3, 29]: 0
Plant response rating (0 to 10; 0 is no effect, 10 is complete control), Bedstraw ([3]; Rate 250 g/ha, Postemergence): 9
Rape plant response rating [4, 25]: 0
Rape plant response rating [4, 26]: 0
Rape plant response rating [4, 27]: 0
Rape plant response rating [4, 28]: 0
Rape plant response rating [4, 29]: 0
Plant response rating (0 to 10; 0 is no effect, 10 is complete control), Rape ([4]; Rate 250 g/ha, Postemergence): 3
Cocklebur plant response rating [5, 25]: 0
Cocklebur plant response rating [5, 26]: 0
Cocklebur plant response rating [5, 27]: 0
Cocklebur plant response rating [5, 28]: 0
Cocklebur plant response rating [5, 30]: 0
Cocklebur plant response rating [5, 31]: 0
Cocklebur plant response rating [5, 29]: 0
Plant response rating (0 to 10; 0 is no effect, 10 is complete control), Cocklebur ([5]; Rate 250 g/ha, Postemergence): 1
Corn plant response rating [6, 25]: 0
Corn plant response rating [6, 26]: 0
Corn plant response rating [6, 27]: 0
Corn plant response rating [6, 28]: 0
Corn plant response rating [6, 30]: 0
Corn plant response rating [6, 31]: 0
Corn plant response rating [6, 29]: 0
Plant response rating (0 to 10; 0 is no effect, 10 is complete control), Corn ([6]; Rate 250 g/ha, Postemergence): 0
Velvetleaf plant response rating [7, 21]: 0
Velvetleaf plant response rating [7, 22]: 0
Velvetleaf plant response rating [7, 23]: 0
Velvetleaf plant response rating [7, 24]: 0
Crabgrass plant response rating [8, 25]: 0
Crabgrass plant response rating [8, 26]: 2
Crabgrass plant response rating [8, 27]: 8
Crabgrass plant response rating [8, 28]: 0
Crabgrass plant response rating [8, 29]: 4
Plant response rating (0 to 10; 0 is no effect, 10 is complete control), Crabgrass ([8]; Rate 250 g/ha, Postemergence): 0
B. signalgrass plant response rating [9, 25]: 0
B. signalgrass plant response rating [9, 26]: 0
B. signalgrass plant response rating [9, 27]: 0
B. signalgrass plant response rating [9, 28]: 0
B. signalgrass plant response rating [9, 30]: 0
B. signalgrass plant response rating ([9]; Rate 125 g/ha, Postemergence, scale 0 (no effect) to 10 (complete control)): 0
B. signalgrass plant response rating [9, 29]: 0
Plant response rating (0 to 10; 0 is no effect, 10 is complete control), B. signalgrass ([9]; Rate 250 g/ha, Postemergence): 0
Rice plant response rating [10, 32]: 0
Rice plant response rating [10, 33]: 0
Rice plant response rating [10, 34]: 0
Rice plant response rating [10, 35]: 0
Blackgrass plant response rating [11, 25]: 0
Blackgrass plant response rating [11, 26]: 0
Blackgrass plant response rating [11, 27]: 0
Blackgrass plant response rating [11, 28]: 0
Blackgrass plant response rating [11, 30]: 0
Blackgrass plant response rating [11, 31]: 0
Blackgrass plant response rating [11, 29]: 0
Plant response rating (0 to 10; 0 is no effect, 10 is complete control), Blackgrass ([11]; Rate 250 g/ha, Postemergence): 2
Wheat plant response rating [12, 21]: 0
Wheat plant response rating [12, 22]: 0
Wheat plant response rating [12, 23]: 0
Wheat plant response rating [12, 24]: 0
Redroot pigweed plant response rating [13, 25]: 0
Redroot pigweed plant response rating [13, 26]: 0
Redroot pigweed plant response rating [13, 27]: 3
Redroot pigweed plant response rating [13, 28]: 0
Redroot pigweed plant response rating [13, 29]: 3
Plant response rating (0 to 10; 0 is no effect, 10 is complete control), Redroot pigweed ([13]; Rate 250 g/ha, Postemergence): 0
Nutsedge plant response rating ([14]; Rate 31 g/ha, scale 0 to 10): 0
Plant response rating (0 to 10; 0 is no effect, 10 is complete control), Nutsedge ([14]; Rate 250 g/ha): 0
Wild oats plant response rating [15, 21]: 0
Wild oats plant response rating [15, 22]: 0
Wild oats plant response rating [15, 23]: 0
Wild oats plant response rating [15, 24]: 0
Barnyardgrass plant response rating [16, 32]: 0
Barnyardgrass plant response rating [16, 33]: 0
Barnyardgrass plant response rating [16, 34]: 0
Barnyardgrass plant response rating [16, 35]: 0
S. Flatsedge plant response rating [17, 32]: 0
S. Flatsedge plant response rating [17, 33]: 0
S. Flatsedge plant response rating [17, 34]: 0
S. Flatsedge plant response rating [17, 35]: 0
Giant foxtail plant response rating [18, 25]: 7
Giant foxtail plant response rating [18, 26]: 8
Giant foxtail plant response rating [18, 27]: 10
Giant foxtail plant response rating [18, 28]: 0
Giant foxtail plant response rating [18, 29]: 8
Plant response rating (0 to 10; 0 is no effect, 10 is complete control), Giant foxtail ([18]; Rate 250 g/ha, Postemergence): 0
Sugarbeets plant response rating [19, 21]: 0
Sugarbeets plant response rating [19, 22]: 0
Sugarbeets plant response rating [19, 23]: 5
Sugarbeets plant response rating [19, 24]: 0
Ducksalad plant response rating [20, 32]: 0
Ducksalad plant response rating [20, 33]: 0
Ducksalad plant response rating [20, 34]: 0
Ducksalad plant response rating [20, 35]: 4
